Data from patent publication US5516775A, “Further use of pyrimidine derivatives” (Ciba-Geigy Corporation, priority 1992, dated 1996).

Assays:
[1] = system: Human T24 bladder carcinoma cells; assay: Inhibition of the growth of human T24 bladder carcinoma cells; type: cell-based; conditions: 120 h, 5 days incubation, methylene blue staining, OD 665 nm
Method: In this assay, the inhibitory action of compounds of formula I on the growth of human T24 bladder carcinoma cells is determined. The IC50 values obtained for the compounds of formula I are from c. 1 to 10 μmol/liter.
Human T24 bladder carcinoma cells are incubated in "Eagle's minimal essential medium", to which 5% (v/v) foetal calf serum has been added, in a humidified incubator at 37° C. and 5 percent by volume CO2 in air. The carcinoma cells (1000-1500) are inoculated in 96-well microtitre plates and incubated overnight under the stated conditions. The test compound is added in serial dilutions on day 1. The plates are incubated for 5 days under the stated conditions. During this time the control cultures undergo at least 4 cell divisions. After incubation, the cells are fixed with a 3.3% (g/v) aqueous solution of glutaraldehyde, washed with water and stained with a 0.05% (weight/volume) aqueous solution of methylene blue. After washing, the stain is eluted with 3% (g/v) aqueous hydrochloric acid. Afterwards, the optical density (OD) per well, which is directly proportional to the number of cells, is measured with a photometer (Titertek multiskan) at 665 nm. The IC50 values are computed by a computer system, using the formula [formula] The IC50 values are defined as that active compound concentration at which the number of cells per well at the end of the incubation period is only 50% of the number of cells in the control cultures. The following IC50 values are obtained in this assay for the compounds of formula I: […]

[2] = biological target: Protein kinase C from pig brain; assay: Determination of the inhibitory action on protein kinase C; type: biochemical; conditions: method of Fabbro et al., read-out: IC50, inhibition of protein kinase C
Method: Protein kinase C from pig brain is used to determine the inhibitory action on protein kinase C. The inhibitory action of the compounds of formula I on protein kinase C is determined by the method of D. Fabbro et al, as described in Example 2. […] 0.1 to 30 μmol/liter.
Protein kinase C from pig brain purified in accordance with the procedure described by T. Uchida and C. R. Filbum in J. Biol. Chem. 259, 12311-4 (1984) is used to determine the inhibitory action on protein kinase C. The inhibitory action of the compounds of formula I on protein kinase C is determined by the method of D. Fabro et al., Arch. Biochem. Biophys. 239, 102-111 (1985). The following IC50 values are obtained in this assay for the compounds of formula I: […]

[3] = system: human T24 bladder carcinoma; assay: Antitumour activity in mice (T24 bladder carcinoma transplant); type: in vivo, female Balb/c nude mice; conditions: once daily for 15 days, measured 24 hours after last administration
Method: In the assay described in Example 3, the compounds of formula I, when administered perorally or intraperitoneally, reduce tumour volume to about 35-70% of tumour volume in control animals treated with placebo.
On day 0 a c. 25 mg piece of human T24 bladder carcinoma is transplanted subcutaneously using Trokar under operable "forene" narcosis on female Balb/c nude mice (Balb/c(Balb/c nu/nu, Bomholdgaard, Denmark; six mice per group). On day 6 after the tumour transplantation the average tumour volume is 120-140 mm^3 and treatment is commenced. The treatment consists in administering perorally or intraperitoneally once daily over 15 successive days, i.e. altogether 15 times, 25 ml/kg of the following formulation. This formulation is prepared as follows: 16 mg of a compound of formula I are dissolved in 0.4 ml of dimethyl sulfoxide (100% ). Then 0.05 ml of Tween 80 is added to this solution and the batch is mixed. Then 7.6 ml of a 0.9% aqueous solution of sodium chloride are added and the batch is thoroughly mixed. This formulation is prepared fresh daily. The control animals receive a placebo. The placebo is the same formulation without compound of formula I.
24 hours after the last administration, the tumour volume is measured and the ratio [%] of the tumour volume T/C is determined in the treated animals (T) and the control animals treated with placebo (C).

SMILES | IC50 [1] [µM] | IC50 [2] [µM] | ratio T/C of tumour volume ([3]; intraperitoneal, 25 mg) [%] | ratio T/C of tumour volume ([3]; intraperitoneal, 50 mg) [%] | ratio T/C of tumour volume ([3]; peroral, 25 mg) [%] | ratio T/C of tumour volume ([3]; peroral, 50 mg) [%]
c1cncc(-c2ccnc(Nc3cccc(-n4ccnc4)c3)n2)c1 [compound A, N-(3-1H-imidazol-1-ylphenyl)-4-(3-pyridyl)-2-pyrimidinamine] | 2.5 | 8.8 |  |  |  | 
FC(F)(F)c1cccc(Nc2nccc(-c3cccnc3)n2)c1 [compound B, N-(3-trifluoromethylphenyl)-4-(3-pyridyl)-2-pyrimidinamine] | 7.4 | 2.5 | 54 | 46 | 68 | 53
Clc1cccc(Nc2nccc(-c3cccnc3)n2)c1 [compound C, N-(3-chlorophenyl)-4-(3-pyridyl)-2-pyrimidinamine] | 5.2 | 6.3 |  |  |  | 
Nc1cccc(Nc2nccc(-c3cccnc3)n2)c1 [compound D, N-(3-aminophenyl)-4-(3-pyridyl)-2-pyrimidinamine] | 7.2 | 28 |  |  |  | 

Further lines, with some results ahead:

IC50 [1] [µM] | IC50 [2] [µM] | SMILES | ratio T/C of tumour volume ([3]; intraperitoneal, 25 mg) [%] | ratio T/C of tumour volume ([3]; intraperitoneal, 50 mg) [%] | ratio T/C of tumour volume ([3]; peroral, 25 mg) [%] | ratio T/C of tumour volume ([3]; peroral, 50 mg) [%]
 | 26 | COC(=O)c1cccc(Nc2nccc(-c3cccnc3)n2)c1 [compound E, N-(3-methoxycarbonylphenyl)-4-(3-pyridyl)-2-pyrimidinamine] |  |  |  | 
 | 28 | NCCCNC(=O)c1cccc(Nc2nccc(-c3cccnc3)n2)c1 [compound F, N-(3-[3-aminopropylaminocarbonyl]phenyl)-4-(3-pyridyl)-2-pyrimidinamine] |  |  |  | 
